The values below are quoted from earlier work in patent publication US20220386610A1, “FUNGICIDAL COMBINATIONS” (UPL Corporation Limited, priority 2019, published 2022).

The test system of this data set is soybean rust. Conditions: for control: 2012/13 season.

Consider `CC(C)(C)C(O)(CCc1ccc(Cl)cc1)Cn1cncn1` (stereo not shown) [tebuconazole], for which the control was 42%. Moreover, where the note is “after ten seasons”, the “efficiency (reduced level)” value is recorded as 24%. Also, the “efficiency (starting level)” value (before the reduction over ten seasons) was 90%.
As for `CC(C1CC1)C(O)(Cn1cncn1)c1ccc(Cl)cc1` (stereo not shown) [cyproconazole], the control was 38%.
